Laboratory results from patent publication US7592326B2, “Method for stimulating the immune, inflammatory or neuroprotective response” (priority 2004, dated 2009).

Assays:
NF-κB = assay: Western blot signaling in human DCs: NF-κB (I-κBα degradation); type: cell-based; conditions: up to 30 min
Method: Human PBMC were isolated by Ficoll density gradient centrifugation from leukopacks supplied by the Department of Transfusion Medicine (Clinical Center, National Institute of Health, Bethesda, Md.). Monocytes were purified (>95%) from human PBMC with MACS CD14 monocyte isolation kit (Miltenyi Biotech Inc., Auburn, Calif.) according to the manufacturer's instruction. DCs were generated as described previously (Yang et al., 2001). In brief, DCs were generated by incubating purified monocytes at 2×10^5/ml in RPMI 1640 containing 10% FBS, 2 mM glutamine, 25 mM HEPES, 100 U/ml penicillin, 100 ug/ml streptomycin, 50 ng/ml recombinant human GM-CSF (PeproTech, Rocky Hill, N.J.), and 50 ng/ml recombinant human IL-4 (PeproTech) at 37° C. in a CO2 (5%) incubator for 7 days. On day 3 and 5 of the incubation, half of the culture medium was replaced with pre-warmed (37° C.) fresh GM-CSF- and IL-4-containing medium. On day 7, DCs were collected, washed three times with PBS, and serum-starved for 8 hours by incubating in serum-free RPMI-1640 containing GM-CSF and IL-4 (2×10^5/ml) at 37° C. in a CO2 (5%) incubator. Subsequently, DCs (2×10^6/sample) were incubated at 37° C. in the absence or presence of c-di-GMP or GMP (Sigma, St. Louis, Mo.) at concentrations specified for 5 or 30 minutes. […]

[1] = system: K. pneumoniae strain 43816, serotype 2; assay: Survival in murine Klebsiella pneumonia; type: in vivo
[2] = system: C. albicans strain SC5314; assay: Systemic C. albicans infection in mice (proposed); type: in vivo, Candida albicans; conditions: A/J and C57BL/6J mice, 3×10^5 blastospores i.v.
Method: To show the efficacy of c-di-GMP in inhibiting C. albicans infection, 8- to 12-week-old A/J and C57BL/6J mice are infected with C. albicans strain SC5314. The blastospores are washed twice in phosphate-buffered saline (PBS) and resuspended in PBS at the required density. For experimental infections, A/J and C57BL/6J mice are inoculated via the tail vein with 200 μl of a suspension containing 3×10^5 C. albicans blastospores in PBS. One group of mice will be pretreated with c-di-GMP (intranasally, i.p., i.m., s.q.). Mice are to be closely monitored for clinical signs of disease, such as lethargy, loss of appetite, hunched back, and ruffled fur.
The levels of TNF-α and IL-6 in tissue extracts are determined using “two-site sandwich” assays with commercially available enzyme-linked immunosorbent assay (ELISA) kits (BD Biosciences). Tissue extracts are prepared by homogenization in lysis buffer (20 mM Tris [pH 7.5], 0.3 M NaCl, 2% sodium deoxycholate, 2% Triton X-100, protease inhibitor cocktail [Roche Diagnostics]). Additional determinations of the levels of 32 cytokines and chemokines are carried out by using cardiac tissue extracts and RayBio mouse cytokine array II membranes (RayBiotech Inc., Norcross, Ga.). […] All values are normalized to the protein content and determined using the Bradford reagent.

basophils = assay: SOCS expression in basophils (real-time PCR); type: cell-based, human
Method: Whether or not cyclic dinucleotides affected induction of SOCS (Suppresser Of Cytokine Synthesis) expression in basophils treated with CDN's was then tested. […] Cells were treated for 18 h, total RNA isolated, and RT-PCR performed for SOCS-1, SOCS-3, and the HPRT housekeeping gene. The fact that cGpGp also induces SOCS-1 may explain why some inhibition of IL-3-induced IL-13 secretion is observed with this cyclic dinucleotide analog. […] In the current IL-13 assay, the cyclic dinucleotide is added simultaneously with IL-3. The TBDMS-cGpGp likely induces SOCS-1 expression faster and thus accounts for greater inhibition of IL-13. […] While modest inhibitory activity with cGpGp was observed, evidence that cGpGp induces SOCS-1 and sometimes better than TBDMS-cGpGp at this particular time point was observed. These differences might be explained by kinetics and it may be that SOCS gene expression would be higher following TBDMS-cGpGp treatment when examined at an earlier time point.

[3] = system: human colon carcinoma cells; conditions: synthetic c-di-GMP; cited from earlier work

Nc1nc(=O)c2ncn([C@@H]3OC4COP(=O)(O)O[C@H]5[C@@H](O)[C@H](n6cnc7c(=O)nc(N)[nH]c76)O[C@@H]5COP(=O)(O)OC4C3O)c2[nH]1 (some centres unmarked) [c-di-GMP, Bis(3′→5′)-cyclic diguanylic acid]
activation of NF-κB (I-κBα degradation) (NF-κB): did not activate | survival following i.t. Klebsiella challenge ([1]; 200 nmoles i.n. 48 and 24 hrs prior, Balb/c mice, vehicle approx. 10%, p<0.05, FIG. 15): significantly increased | survival following i.t. Klebsiella challenge ([1]; 200 nmoles s.q. 48 and 24 hrs prior, Balb/c mice, p<0.05, FIG. 15): significantly increased | survival following i.t. Klebsiella challenge ([1]; given concomitantly and 6 hrs post K. pneumoniae, data not shown): no increase in survival | clinical outcome [2]: less mortality | time of SOCS mRNA peak (basophils): ~18 h | SOCS-1 mRNA (basophils; 18 h treatment): induced | basal and growth factor induced proliferation of human colon carcinoma cells [3]: inhibits
